Reference: patent US20100216791A1, “PYRIDINYLQUINAZOLINAMINE DERIVATIVES AND THEIR USE AS B-RAF INHIBITORS” (ASTRAZENECA, priority 2006, published 2010)

biological target: Mutant B-Raf (V600E) enzyme (MT B-Raf) (Homo sapiens, UniProt P15056, V600E); assay: biochemical; settings: not given
Sequence (P15056 whole entry V600E): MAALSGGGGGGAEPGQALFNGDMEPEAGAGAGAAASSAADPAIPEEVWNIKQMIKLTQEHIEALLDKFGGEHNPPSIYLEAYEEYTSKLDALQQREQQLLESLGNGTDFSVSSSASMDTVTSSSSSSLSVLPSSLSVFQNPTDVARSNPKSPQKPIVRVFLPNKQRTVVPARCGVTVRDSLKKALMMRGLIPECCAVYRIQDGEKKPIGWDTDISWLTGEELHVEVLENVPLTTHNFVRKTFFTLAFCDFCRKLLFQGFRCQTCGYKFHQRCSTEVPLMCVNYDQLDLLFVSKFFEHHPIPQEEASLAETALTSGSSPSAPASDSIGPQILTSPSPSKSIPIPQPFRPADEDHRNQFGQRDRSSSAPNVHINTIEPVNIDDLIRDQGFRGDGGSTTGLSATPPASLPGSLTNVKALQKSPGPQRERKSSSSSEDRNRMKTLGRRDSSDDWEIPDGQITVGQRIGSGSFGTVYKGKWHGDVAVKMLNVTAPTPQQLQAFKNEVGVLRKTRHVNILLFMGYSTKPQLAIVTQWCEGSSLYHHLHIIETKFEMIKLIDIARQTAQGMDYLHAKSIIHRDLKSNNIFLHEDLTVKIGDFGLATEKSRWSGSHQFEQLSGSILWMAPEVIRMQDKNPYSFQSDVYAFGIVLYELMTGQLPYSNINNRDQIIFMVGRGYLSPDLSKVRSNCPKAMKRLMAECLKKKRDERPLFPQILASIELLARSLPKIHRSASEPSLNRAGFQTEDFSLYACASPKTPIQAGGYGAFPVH

Compound | IC50 [nM]
Cc1cc(Nc2ncc3cc(-c4ccncc4)ccc3n2)ccc1C(=O)N(C)C [Example 50] | 150

same assay, conditions: B-Raf Alpha screen comparable to the described assay; phosphorylation of biotinylated HIS-MEK-AVI; results may be an average of two or more results

Compound | IC50 [nM]
CN(CCCNC(=O)c1ccc(Nc2ncc3cc(-c4ccncc4)ccc3n2)cc1)C(=O)OC(C)(C)C [Example 13, tert-Butyl methyl[3-({4-[(6-pyridin-4-ylquinazolin-2-yl)amino]benzoyl}amino)propyl]carbamate] | 310
O=S(=O)(c1ccc(Nc2ncc3cc(-c4ccncc4)ccc3n2)cc1)N1CCOCC1 [Example 94, N-[4-(Morpholin-4-ylsulfonyl)phenyl]-6-pyridin-4-ylquinazolin-2-amine] | 300
CCCNC(C)c1ccc(Nc2ncc3cc(-c4ccncc4)ccc3n2)cc1 (single isomer, unassigned) [Example 142] | 12
CC(=O)c1ccc(Nc2ncc3cc(-c4ccncc4)ccc3n2)cc1 [Example 53, 1-{4-[(6-Pyridin-4-ylquinazolin-2-yl)amino]phenyl}ethanone] | 210
Cc1nc2cc(Nc3ncc4cc(-c5ccncc5)ccc4n3)ccc2o1 [Example 109, N-(2-Methyl-1,3-benzoxazol-5-yl)-6-pyridin-4-ylquinazolin-2-amine] | 940
Fc1cccc(Nc2ncc3cc(-c4ccncc4)ccc3n2)c1 [Example 98, N-(3-Fluorophenyl)-6-pyridin-4-ylquinazolin-2-amine] | 630
c1cc(-c2ccc3nc(Nc4ccc5c(c4)OCO5)ncc3c2)ccn1 [Example 44, N-1,3-Benzodioxol-5-yl-6-pyridin-4-ylquinazolin-2-amine] | 420
CCCNC(C)c1ccc(Nc2ncc3cc(-c4ccncc4)ccc3n2)cc1 (stereo not drawn) [Example 138] | 47
CC(NCCCO)c1ccc(Nc2ncc3cc(-c4ccncc4)ccc3n2)cc1 (stereo not drawn) [Example 58, 3-[(1-{4-[(6-Pyridin-4-ylquinazolin-2-yl)amino]phenyl}ethyl)amino]propan-1-ol] | 36
COC(=O)c1ccc(Nc2ncc3cc(-c4ccncc4)ccc3n2)cc1 [Example 9, Methyl 4-[(6-pyridin-4-ylquinazolin-2-yl)amino]benzoate] | 230
Cc1ccc(Nc2ncc3cc(-c4ccncc4)ccc3n2)cc1 [Example 106, N-(4-Methylphenyl)-6-pyridin-4-ylquinazolin-2-amine] | 23000
CNC(=O)c1ccc(Nc2ncc3cc(-c4ccncc4)ccc3n2)cc1 [Example 17, N-Methyl-4-[(6-pyridin-4-ylquinazolin-2-yl)amino]benzamide] | 79
c1cnn(-c2ccc(Nc3ncc4cc(-c5ccncc5)ccc4n3)cc2)c1 [Example 108, N-[4-(1H-Pyrazol-1-yl)phenyl]-6-pyridin-4-ylquinazolin-2-amine] | 250
CC(CN(C)C)NCc1ccc(Nc2ncc3cc(-c4ccncc4)ccc3n2)cc1 (stereo not drawn) [Example 74, N^1,N^1-Dimethyl-N^2-{4-[(6-pyridin-4-ylquinazolin-2-yl)amino]benzyl}propane-1,2-diamine] | 160
CS(=O)(=O)c1cccc(Nc2ncc3cc(-c4ccncc4)ccc3n2)c1 [Example 104, N-[3-(Methylsulfonyl)phenyl]-6-pyridin-4-ylquinazolin-2-amine] | 160
CC(NCCO)c1ccc(Nc2ncc3cc(-c4ccncc4)ccc3n2)cc1 (stereo not drawn) [Example 57, 2-[(1-{4-[(6-Pyridin-4-ylquinazolin-2-yl)amino]phenyl}ethyl)amino]ethanol] | 29
CN(C)CCOc1ccc(Nc2ncc3cc(-c4ccncc4)ccc3n2)cc1 [Example 40, N-{4-[2-(Dimethylamino)ethoxy]phenyl}-6-pyridin-4-ylquinazolin-2-amine] | 160
CC(c1ccc(Nc2ncc3cc(-c4ccncc4)ccc3n2)cc1)N1CCCC1 (stereo not drawn) [Example 131, 6-(Pyridin-4-yl)-N-(4-(1-(pyrrolidin-1-yl)ethyl)phenyl)quinazolin-2-amine] | 19
c1cc(-c2ccc3nc(Nc4ccc(N5CCOCC5)cc4)ncc3c2)ccn1 [Example 79, N-(4-Morpholin-4-ylphenyl)-6-pyridin-4-ylquinazolin-2-amine] | 130
c1cc(-c2ccc3nc(Nc4ccc(OCCN5CCOCC5)cc4)ncc3c2)ccn1 [Example 43, N-[4-(2-Morpholin-4-ylethoxy)phenyl]-6-pyridin-4-ylquinazolin-2-amine] | 160
CN(C)c1ccc(Nc2ncc3cc(-c4ccncc4)ccc3n2)cc1 [Example 107, N,N-Dimethyl-N′-(6-pyridin-4-ylquinazolin-2-yl)benzene-1,4-diamine] | 1900
CC(O)CCNC(=O)c1ccc(Nc2ncc3cc(-c4ccncc4)ccc3n2)cc1 (stereo not drawn) [Example 34, N-(3-Hydroxybutyl)-4-[(6-pyridin-4-ylquinazolin-2-yl)amino]benzamide] | 270
COc1ccc(Nc2ncc3cc(-c4ccncc4)ccc3n2)cc1 [Example 41, N-(4-Methoxyphenyl)-6-pyridin-4-ylquinazolin-2-amine] | 460
CCCNC(C)c1ccc(Nc2ncc3cc(-c4ccncc4)ccc3n2)cc1 (single isomer, unassigned) [Example 141] | 34

Compound | IC50 [nM]
CC(C)(C#N)c1ccc(Nc2ncc3cc(-c4ccncc4)ccc3n2)cc1 [Example 2, 2-Methyl-2-{4-[(6-pyridin-4-ylquinazolin-2-yl)amino]phenyl}propanenitrile] | 730
CNCCNC(=O)c1cccc(Nc2ncc3cc(-c4ccncc4)ccc3n2)n1 [Example 65, N-[2-(Methylamino)ethyl]-6-[(6-pyridin-4-ylquinazolin-2-yl)amino]pyridine-2-carboxamide] | 1000
CC1(C)OCC(CNC(=O)c2ccc(Nc3ncc4cc(-c5ccncc5)ccc4n3)cc2)O1 (stereo not drawn) [Example 16, N-[(2,2-Dimethyl-1,3-dioxolan-4-yl)methyl]-4-[(6-pyridin-4-ylquinazolin-2-yl)amino]benzamide] | 200
O=S(=O)(c1cccc(Nc2ncc3cc(-c4ccncc4)ccc3n2)c1)N1CCOCC1 [Example 102, N-[3-(Morpholin-4-ylsulfonyl)phenyl]-6-pyridin-4-ylquinazolin-2-amine] | 520
Cc1cc(Nc2ncc3cc(-c4ccncc4)ccc3n2)ccc1C(C)N(C)P(C)(C)=O (stereo not drawn) [Example 130] | 120
CN(CCO)Cc1ccc(Nc2ncc3cc(-c4ccncc4)ccc3n2)cc1 [Example 75, 2-(Methyl{4-[(6-pyridin-4-ylquinazolin-2-yl)amino]benzyl}amino)ethanol] | 24
Cc1cc(Nc2ncc3cc(-c4ccncc4)ccc3n2)ccc1C(=O)NCCN(C)C [Example 36, N-[2-(Dimethylamino)ethyl]-2-methyl-4-[(6-pyridin-4-ylquinazolin-2-yl)amino]benzamide] | 95
Cc1cc(Nc2ncc3cc(-c4ccncc4)ccc3n2)ccc1C(=O)NCCN1CCOCC1 [Example 33, 2-Methyl-N-(2-morpholin-4-ylethyl)-4-[(6-pyridin-4-ylquinazolin-2-yl)amino]benzamide] | 160
NCCCNC(=O)c1ccc(Nc2ncc3cc(-c4ccncc4)ccc3n2)cc1 [Example 62, N-(3-Aminopropyl)-4-[(6-pyridin-4-ylquinazolin-2-yl)amino]benzamide] | 93
COCCNC(=O)c1ccc(Nc2ncc3cc(-c4ccncc4)ccc3n2)cc1Cl [Example 10, 2-Chloro-N-(2-methoxyethyl)-4-[(6-pyridin-4-ylquinazolin-2-yl)amino]benzamide] | 350
CC(c1ccc(Nc2ncc3cc(-c4ccncc4)ccc3n2)cc1)N(C)CCCO (stereo not drawn) [Example 135] | 29
CC(C)(C)OC(=O)N1CCCC1CNC(=O)c1ccc(Nc2ncc3cc(-c4ccncc4)ccc3n2)cc1 (stereo not drawn) [Example 19, tert-Butyl 2-[({4-[(6-pyridin-4-ylquinazolin-2-yl)amino]benzoyl}amino)methyl]pyrrolidine-1-carboxylate] | 490
O=C(NCC(O)CO)c1ccc(Nc2ncc3cc(-c4ccncc4)ccc3n2)cc1 (stereo not drawn) [Example 61, N-(2,3-Dihydroxypropyl)-4-[(6-pyridin-4-ylquinazolin-2-yl)amino]benzamide] | 100
Cn1ccc(Nc2ncc3cc(-c4ccncc4)ccc3n2)n1 [Example 88, N-(1-Methyl-1H-pyrazol-3-yl)-6-pyridin-4-ylquinazolin-2-amine] | 1820
CC(=O)N1CCN(C(=O)c2ccc(Nc3ncc4cc(-c5ccncc5)ccc4n3)cc2)CC1 [Example 119] | 64
CC(c1ccc(Nc2ncc3cc(-c4ccncc4)ccc3n2)cc1)N(C)C (single isomer, unassigned) [Example 140] | 21
COCCNC(=O)c1ccc(Nc2ncc3cc(-c4ccncc4)ccc3n2)nc1 [Example 18, N-(2-Methoxyethyl)-6-[(6-pyridin-4-ylquinazolin-2-yl)amino]nicotinamide] | 1300
O=C(NCCN1CCCCC1)c1ccc(Nc2ncc3cc(-c4ccncc4)ccc3n2)cc1 [Example 27, N-(2-Piperidin-1-ylethyl)-4-[(6-pyridin-4-ylquinazolin-2-yl)amino]benzamide] | 87
c1cc(-c2ccc3nc(Nc4ccc(CNCCN5CCOCC5)cc4)ncc3c2)ccn1 [Example 70, N-(4-{[(2-Morpholin-4-ylethyl)amino]methyl}phenyl)-6-pyridin-4-ylquinazolin-2-amine] | 74
O=S(=O)(c1ccc(Nc2ncc3cc(-c4ccncc4)ccc3n2)cc1)N1CCCC1 [Example 96, 6-Pyridin-4-yl-N-[4-(pyrrolidin-1-ylsulfonyl)phenyl]quinazolin-2-amine] | 740
O=C(NCCCN1CCCC1=O)c1ccc(Nc2ncc3cc(-c4ccncc4)ccc3n2)cc1 [Example 21, N-[3-(2-Oxopyrrolidin-1-yl)propyl]-4-[(6-pyridin-4-ylquinazolin-2-yl)amino]benzamide] | 200
Oc1ccc(Nc2ncc3cc(-c4ccncc4)ccc3n2)cc1 [Example 81, 4-[(6-Pyridin-4-ylquinazolin-2-yl)amino]phenol] | 61
O=S(=O)(c1cccc(Nc2ncc3cc(-c4ccncc4)ccc3n2)c1)N1CCCCC1 [Example 100, N-[3-(Piperidin-1-ylsulfonyl)phenyl]-6-pyridin-4-ylquinazolin-2-amine] | 1000
